In the NIST ThermoML archive (doi:10.1016/j.tca.2013.06.031):
Numbers after ± are expanded uncertainties.

Legend:
[1] = wn = mass fraction of the nth substance listed; conditions: 101 kPa, Liquid, w1 = 0.009; for viscosity: Capillary tube (Ostwald / Ubbelohde) method; for mass density: Vibrating tube method
[2] = mn = molality of the nth substance listed, in mol/kg; conditions: 101 kPa, Liquid, m2 = 0; for viscosity: Capillary tube (Ostwald / Ubbelohde) method; for mass density: Vibrating tube method
[3] = 101 kPa, Liquid, Capillary tube (Ostwald / Ubbelohde) method

[Cl-].[Na+] [sodium chloride] + O
[1]
Conditions | mass density [kg/m3] | viscosity [mPa·s]
278.15 K | 1006.09 ± 0.27 | 1.53 ± 0.015
283.15 K | 1005.64 ± 0.27 | 1.321 ± 0.013
288.15 K | 1005.07 ± 0.28 | 1.154 ± 0.011
293.15 K | 1004.14 ± 0.27 | 1.015 ± 0.0098
298.15 K | 1002.96 ± 0.27 | 0.9068 ± 0.0086
303.15 K | 1001.47 ± 0.27 | 0.8105 ± 0.0077
308.15 K | 999.75 ± 0.27 | 0.7363 ± 0.007
313.15 K | 997.82 ± 0.26 | 0.6641 ± 0.0065

O [water] + CO/N=C(\C(=O)N[C@@H]1C(=O)N2C(C(=O)[O-])=C(CSc3nc(C)c(CC(=O)[O-])s3)CS[C@H]12)c1csc(N)n1.[Na+].[Na+]
[2]
Conditions | mass density [kg/m3] | viscosity [mPa·s]
278.15 K | 999.96 ± 0.24 | 1.521 ± 0.014
283.15 K | 999.7 ± 0.25 | 1.307 ± 0.013
288.15 K | – | 1.135 ± 0.011
293.15 K | – | 1.002 ± 0.0094
298.15 K | – | 0.8903 ± 0.0083
303.15 K | – | 0.7977 ± 0.0074
308.15 K | – | 0.719 ± 0.0067
313.15 K | – | 0.6532 ± 0.0062

O [water]
[3]
Conditions | viscosity [mPa·s]
278.15 K | 1.521 ± 0.014
283.15 K | 1.307 ± 0.013
288.15 K | 1.135 ± 0.011
293.15 K | 1.002 ± 0.0094
298.15 K | 0.8903 ± 0.0083
303.15 K | 0.7977 ± 0.0074
308.15 K | 0.719 ± 0.0067
313.15 K | 0.6532 ± 0.0062
